Four compounds from ChEMBL document CHEMBL5365497, “Developing Novel Coumarin-Containing Azoles Antifungal Agents by the Scaffold Merging Strategy for Treating Azole-Resistant Candidiasis” (J Med Chem, 2023) can be followed below.

For series [1], the system named is Candida albicans. Kind of series: Antifungal activity against Candida albicans CPCC400616 assessed as fungal growth inhibition by CLSI based microdilution method. The series is classed as functional.
The test system of series [2] is Candida albicans. Kind of series: Antifungal activity against Candida albicans SC5314 assessed as fungal growth inhibition by CLSI based microdilution method. It counts as functional. A general note: Dilution methods test growth across graded concentrations, often in twofold steps.
The next series deals with Candida parapsilosis. Nature of the series: Antifungal activity against Candida parapsilosis assessed as fungal growth inhibition by CLSI based microdilution method. It counts as functional. To be noted: Lodderomyces parapsilosis.
The test system of the next series is Nakaseomyces glabratus. Kind of series: Antifungal activity against Candida glabrata assessed as fungal growth inhibition by CLSI based microdilution method. It counts as functional.
Another series concerns Pichia kudriavzevii. Kind of series: Antifungal activity against Pichia kudriavzevii assessed as fungal growth inhibition by CLSI based microdilution method. It counts as functional.
Another series deals with Candida tropicalis. Kind of series: Antifungal activity against Candida tropicalis assessed as fungal growth inhibition by CLSI based microdilution method. The series is classed as functional.
The test system of another series is Cryptococcus neoformans. Nature of the series: Antifungal activity against Cryptococcus neoformans assessed as fungal growth inhibition by CLSI based microdilution method. The series is classed as functional.
The next series deals with T1, Cytochrome P450 1A2 (Homo sapiens, UniProt P05177).
T1 sequence (P05177 whole entry): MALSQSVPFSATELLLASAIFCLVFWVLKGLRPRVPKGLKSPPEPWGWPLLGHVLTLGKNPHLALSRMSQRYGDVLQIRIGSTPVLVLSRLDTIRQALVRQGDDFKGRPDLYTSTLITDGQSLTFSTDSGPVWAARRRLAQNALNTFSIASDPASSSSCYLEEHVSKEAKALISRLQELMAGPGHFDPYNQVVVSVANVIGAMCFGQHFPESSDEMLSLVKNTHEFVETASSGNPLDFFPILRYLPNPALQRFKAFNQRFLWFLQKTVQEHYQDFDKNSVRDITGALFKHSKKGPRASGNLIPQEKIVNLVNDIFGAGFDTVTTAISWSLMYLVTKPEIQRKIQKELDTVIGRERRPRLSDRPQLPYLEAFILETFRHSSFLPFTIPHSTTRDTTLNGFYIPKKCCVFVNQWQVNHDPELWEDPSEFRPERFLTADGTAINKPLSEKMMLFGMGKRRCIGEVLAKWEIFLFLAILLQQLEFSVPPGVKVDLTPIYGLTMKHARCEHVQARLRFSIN
Kind of series: Inhibition of CYP1A2 in human liver microsomes using phenacetin as substrate preincubated for 5 mins followed by NADPH addition by LC-MS/MS analysis. It counts as ADME, Microsome. In general terms: Microsomes from liver hold many membrane-bound enzymes, among them those of drug oxidation.

A short description of series [3]: Stability in mouse plasma assessed as compound remaining at 1 uM measured for 180 mins by LC-MS/MS analysis. The series is classed as ADME, cell-free. To be noted: read-out: Stability.
Series [4] in a line: Stability in mouse plasma assessed as half life at 1 uM measured for 180 mins by LC-MS/MS analysis. It counts as ADME, cell-free.
A further series deals with Cytochrome P450 2C9 (Homo sapiens, UniProt P11712). Kind of series: Inhibition of CYP2C9 in human liver microsomes using diclofenac as substrate preincubated for 5 mins followed by NADPH addition by LC-MS/MS analysis. It counts as ADME, Microsome.
The target of the next series is Cytochrome P450 2D6 (Homo sapiens, UniProt P10635). Nature of the series: Inhibition of CYP2D6 in human liver microsomes using dextromethorphan as substrate preincubated for 5 mins followed by NADPH addition by LC-MS/MS analysis. The series is classed as ADME, Microsome.
Series [5] in a line: Cytotoxicity against mouse J774.A1 cells assessed as cell growth inhibition by MTT assay. The series is classed as toxicity, cell-based. For orientation: Tetrazolium dyes change colour on reduction, which living cells bring about.
Series [6] has as its system Candida albicans. Nature of the series: Antifungal activity against fluconazole-resistant Candida albicans CaR assessed as fungal growth inhibition by CLSI based microdilution method. It counts as functional.
The subject of series [7] is Candida albicans. Kind of series: Antifungal activity against fluconazole-resistant Candida albicans 17# assessed as fungal growth inhibition by CLSI based microdilution method. It counts as functional.
Series [8] concerns Candida albicans. Kind of series: Antifungal activity against fluconazole-resistant Candida albicans 632 assessed as fungal growth inhibition by CLSI based microdilution method. The series is classed as functional.
Series [9] deals with Candida albicans. Kind of series: Antifungal activity against fluconazole-resistant Candida albicans 904 assessed as fungal growth inhibition by CLSI based microdilution method. The series is classed as functional.
The test system of series [10] is Candida albicans. Nature of the series: Antifungal activity against fluconazole-resistant Candida albicans 901 assessed as fungal growth inhibition by CLSI based microdilution method. The series is classed as functional.

The structures appear in SMILES notation. Values after ≈ are worked out from the molar mass of the structure shown. Where only a bound is given, the exact number is not on record here.

Broadly, the MIC is the lowest concentration found to suppress growth. The term IC50 denotes the concentration that inhibits the measured activity by half. As a reminder, the half-life is the time needed for the level to fall by half in the phase considered.

Cytochrome P450 2D6, sequence (P10635 whole entry): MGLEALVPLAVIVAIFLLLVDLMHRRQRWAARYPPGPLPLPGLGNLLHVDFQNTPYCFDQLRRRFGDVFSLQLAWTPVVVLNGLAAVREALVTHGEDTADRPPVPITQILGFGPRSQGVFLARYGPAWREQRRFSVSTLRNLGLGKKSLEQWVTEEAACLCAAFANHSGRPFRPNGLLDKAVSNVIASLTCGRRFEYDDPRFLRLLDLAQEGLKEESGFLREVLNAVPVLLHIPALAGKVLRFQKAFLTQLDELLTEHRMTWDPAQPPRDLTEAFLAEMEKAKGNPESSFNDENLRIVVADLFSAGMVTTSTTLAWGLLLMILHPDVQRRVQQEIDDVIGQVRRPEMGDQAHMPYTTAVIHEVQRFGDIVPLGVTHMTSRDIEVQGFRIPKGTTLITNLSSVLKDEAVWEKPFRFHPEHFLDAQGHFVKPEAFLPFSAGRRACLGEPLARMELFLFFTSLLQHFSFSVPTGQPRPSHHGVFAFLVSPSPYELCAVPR
Cytochrome P450 2C9, sequence (P11712 whole entry): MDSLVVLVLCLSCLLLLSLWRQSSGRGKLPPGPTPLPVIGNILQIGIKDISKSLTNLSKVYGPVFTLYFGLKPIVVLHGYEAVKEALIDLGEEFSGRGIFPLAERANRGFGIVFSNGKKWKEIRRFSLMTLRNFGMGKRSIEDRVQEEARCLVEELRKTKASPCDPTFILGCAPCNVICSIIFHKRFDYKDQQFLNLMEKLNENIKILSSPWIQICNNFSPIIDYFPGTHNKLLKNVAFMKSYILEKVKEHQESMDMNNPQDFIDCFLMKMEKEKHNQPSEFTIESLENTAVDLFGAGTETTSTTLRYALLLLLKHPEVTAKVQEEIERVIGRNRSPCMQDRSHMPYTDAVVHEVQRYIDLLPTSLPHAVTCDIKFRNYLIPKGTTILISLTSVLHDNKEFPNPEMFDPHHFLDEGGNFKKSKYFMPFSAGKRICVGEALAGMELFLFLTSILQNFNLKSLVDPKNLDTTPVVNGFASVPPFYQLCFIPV

Turning to `Clc1ccc(COC(Cn2ccnc2)c2ccc(Cl)cc2Cl)c(Cl)c1` (centres undefined) [MICONAZOLE], the MIC in the series on Candida albicans [1] came out at 0.25 µg/mL (≈ 0.601 µM); in the series on Candida albicans [2], 0.03 µg/mL (≈ 0.0721 µM); with Candida parapsilosis, 0.25 µg/mL (≈ 0.601 µM); in the series with Nakaseomyces glabratus, 0.5 µg/mL (≈ 1.2 µM); with Pichia kudriavzevii, 0.5 µg/mL (≈ 1.2 µM); with Candida tropicalis it was 1 µg/mL (≈ 2.4 µM). Moreover, the MIC with Cryptococcus neoformans is 0.25 µg/mL (≈ 0.601 µM). The IC50 against Cytochrome P450 1A2 stood at 2.62 µM; against Cytochrome P450 2C9, 0.115 µM; against Cytochrome P450 2D6 it was 0.875 µM; in series [5], 22.2 µM. Moreover, the remaining at 3 h, 1 µM in series [3] came out at 94.9%. For the same compound, in series [4], the half-life at 1 µM was greater than 6 h.
As to `O=c1oc2ccccc2cc1COC(Cn1ccnc1)c1ccc(F)cc1` (centres undefined), the MIC in the series on Candida albicans [1] is 0.06 µg/mL (≈ 0.165 µM); with Candida albicans [2], 0.03 µg/mL (≈ 0.0823 µM); in the series on Candida parapsilosis it was less than 0.25 µg/mL; in the series on Nakaseomyces glabratus, 1 µg/mL (≈ 2.74 µM); in the series with Pichia kudriavzevii it was 1 µg/mL (≈ 2.74 µM); in the series with Candida tropicalis it was 0.5 µg/mL (≈ 1.37 µM). Further, the MIC worked out at 0.125 µg/mL (≈ 0.343 µM) with Cryptococcus neoformans; 0.5 µg/mL (≈ 1.37 µM) in the series with Candida albicans [6]; 2 µg/mL (≈ 5.49 µM) in the series with Candida albicans [7]; 8 µg/mL (≈ 22 µM) with Candida albicans [8]; 4 µg/mL (≈ 11 µM) in the series with Candida albicans [9]; 8 µg/mL (≈ 22 µM) with Candida albicans [10].
For `O=c1oc2ccccc2cc1COC(Cn1ccnc1)c1ccc(F)cc1F` (centres undefined), the MIC with Candida albicans [1] is 0.06 µg/mL (≈ 0.157 µM); in the series with Candida albicans [2] it was 0.03 µg/mL (≈ 0.0785 µM); with Candida parapsilosis, less than 0.25 µg/mL; with Nakaseomyces glabratus it was 1 µg/mL (≈ 2.62 µM); with Pichia kudriavzevii, 0.5 µg/mL (≈ 1.31 µM); with Candida tropicalis it was 1 µg/mL (≈ 2.62 µM). Besides, the MIC in the series with Cryptococcus neoformans stood at 0.06 µg/mL (≈ 0.157 µM); in the series with Candida albicans [6], 0.5 µg/mL (≈ 1.31 µM); with Candida albicans [7], 2 µg/mL (≈ 5.23 µM); in the series with Candida albicans [8], 4 µg/mL (≈ 10.5 µM); in the series on Candida albicans [9], 2 µg/mL (≈ 5.23 µM); in the series on Candida albicans [10], 16 µg/mL (≈ 41.8 µM).
With `O=c1ccc2ccc(COC(Cn3ccnc3)c3ccc(F)cc3F)cc2o1` (centres undefined), the MIC with Candida albicans [1] is 4 µg/mL (≈ 10.5 µM); with Candida albicans [2], 0.25 µg/mL (≈ 0.654 µM); in the series with Candida parapsilosis it was 16 µg/mL (≈ 41.8 µM); in the series with Nakaseomyces glabratus, 64 µg/mL (≈ 167 µM); with Pichia kudriavzevii it was 64 µg/mL (≈ 167 µM); with Candida tropicalis, 8 µg/mL (≈ 20.9 µM). Besides, the MIC in the series with Cryptococcus neoformans worked out at 64 µg/mL (≈ 167 µM); in the series with Candida albicans [6], 128 µg/mL (≈ 335 µM); in the series on Candida albicans [7], 128 µg/mL (≈ 335 µM); in the series on Candida albicans [8], 32 µg/mL (≈ 83.7 µM); in the series on Candida albicans [9], 32 µg/mL (≈ 83.7 µM); with Candida albicans [10] it was 64 µg/mL (≈ 167 µM).
